Assay results reported in article PMC9898036, “VIP152 is a selective CDK9 inhibitor with pre-clinical in vitro and in vivo efficacy in chronic lymphocytic leukemia” (Leukemia, 2022).

How the values were obtained:
Test in all cases: DiscoverX KINOMEscan kinase profiling (468 assays)
Type in all cases: binding
human kinome [1] = molecular target: human kinome (Homo sapiens, UniProt O00238); conditions: BMPR1B; 100 nM; read-out: Percent Control
Method in brief: (§1)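 DNA-tagged kinases competed for immobilized biotinylated ligands on streptavidin magnetic beads, with bound kinase quantified by qPCR. VIP152 in DMSO was tested against a DMSO control.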

human kinome [2] = molecular target: human kinome (Homo sapiens, UniProt O94921); conditions: read-out: Percent Control
Method in brief: as §1

human kinome [3] = molecular target: human kinome (Homo sapiens, UniProt O95382); conditions: ASK2 (Entrez MAP3K6); 100 nM; read-out: Percent Control
Method in brief: as §1

human kinome [4] = molecular target: human kinome (Homo sapiens, UniProt P00533, G719C); conditions: EGFR(G719C); 100 nM; read-out: Percent Control
Method in brief: as §1

human kinome [5] = molecular target: human kinome (Homo sapiens, UniProt P00533, G719S); conditions: EGFR(G719S); 100 nM; read-out: Percent Control
Method in brief: as §1

human kinome [6] = molecular target: human kinome (Homo sapiens, UniProt P04629); conditions: kinase TRKA (Entrez NTRK1); compound concentration 1000 nM; read-out: Percent Control
Method in brief: as §1

human kinome [7] = molecular target: human kinome (Homo sapiens, UniProt P14616); conditions: INSRR; 100 nM; read-out: Percent Control
Method in brief: as §1

human kinome [8] = molecular target: human kinome (Homo sapiens, UniProt P16234); conditions: read-out: Percent Control
Method in brief: as §1

human kinome [9] = molecular target: human kinome (Homo sapiens, UniProt P17948); conditions: FLT1; 100 nM; read-out: Percent Control
Method in brief: as §1

human kinome [10] = molecular target: human kinome (Homo sapiens, UniProt P22607); conditions: FGFR3; 100 nM; read-out: Percent Control
Method in brief: as §1

human kinome [11] = molecular target: human kinome (Homo sapiens, UniProt P27448); conditions: MARK3; 100 nM; read-out: Percent Control
Method in brief: as §1

human kinome [12] = molecular target: human kinome (Homo sapiens, UniProt P35968); conditions: kinase VEGFR2 (Entrez KDR); compound concentration 1000 nM; read-out: Percent Control
Method in brief: as §1

human kinome [13] = molecular target: human kinome (Homo sapiens, UniProt P48736); conditions: read-out: Percent Control
Method in brief: as §1

human kinome [14] = molecular target: human kinome (Homo sapiens, UniProt P53778); conditions: read-out: Percent Control
Method in brief: as §1

human kinome [15] = molecular target: human kinome (Homo sapiens, UniProt P54760); conditions: EPHB4; 100 nM; read-out: Percent Control
Method in brief: as §1

human kinome [16] = molecular target: human kinome (Homo sapiens, UniProt P57059); conditions: kinase SIK (Entrez SIK1); compound concentration 1000 nM; read-out: Percent Control
Method in brief: as §1

human kinome [17] = molecular target: human kinome (Homo sapiens, UniProt P68400); conditions: CSNK2A1; 100 nM; read-out: Percent Control
Method in brief: as §1

human kinome [18] = molecular target: human kinome (Homo sapiens, UniProt Q08345); conditions: DDR1; 100 nM; read-out: Percent Control
Method in brief: as §1

human kinome [19] = molecular target: human kinome (Homo sapiens, UniProt Q16288); conditions: kinase TRKC (Entrez NTRK3); compound concentration 1000 nM; read-out: Percent Control
Method in brief: as §1

human kinome [20] = molecular target: human kinome (Homo sapiens, UniProt Q32MK0); conditions: MLCK (Entrez MYLK3); 100 nM; read-out: Percent Control
Method in brief: as §1

human kinome [21] = molecular target: human kinome (Homo sapiens, UniProt Q6DT37); conditions: DMPK2 (Entrez CDC42BPG); 100 nM; read-out: Percent Control
Method in brief: as §1

human kinome [22] = molecular target: human kinome (Homo sapiens, UniProt Q7L7X3); conditions: kinase TAOK1 (Entrez TAOK1); compound concentration 1000 nM; read-out: Percent Control
Method in brief: as §1

human kinome [23] = molecular target: human kinome (Homo sapiens, UniProt Q86UE8); conditions: kinase TLK2 (Entrez TLK2); compound concentration 1000 nM; read-out: Percent Control
Method in brief: as §1

human kinome [24] = molecular target: human kinome (Homo sapiens, UniProt Q8WXR4); conditions: read-out: Percent Control
Method in brief: as §1

human kinome [25] = molecular target: human kinome (Homo sapiens, UniProt Q99683); conditions: ASK1 (Entrez MAP3K5); 100 nM; read-out: Percent Control
Method in brief: as §1

human kinome [26] = molecular target: human kinome (Homo sapiens, UniProt Q9BVS4); conditions: kinase RIOK2 (Entrez RIOK2); compound concentration 1000 nM; read-out: Percent Control
Method in brief: as §1

human kinome [27] = molecular target: human kinome (Homo sapiens, UniProt Q9H2G2); conditions: kinase SLK (Entrez SLK); compound concentration 1000 nM; read-out: Percent Control
Method in brief: as §1

human kinome [28] = molecular target: human kinome (Homo sapiens, UniProt Q9NRP7); conditions: kinase STK36 (Entrez STK36); compound concentration 1000 nM; read-out: Percent Control
Method in brief: as §1

human kinome [29] = molecular target: human kinome (Homo sapiens, UniProt Q9NY57); conditions: kinase YANK2 (Entrez STK32B); compound concentration 1000 nM; read-out: Percent Control
Method in brief: as §1

Sequence of human kinome (Homo sapiens, UniProt Q8WXR4) (Q8WXR4 whole entry): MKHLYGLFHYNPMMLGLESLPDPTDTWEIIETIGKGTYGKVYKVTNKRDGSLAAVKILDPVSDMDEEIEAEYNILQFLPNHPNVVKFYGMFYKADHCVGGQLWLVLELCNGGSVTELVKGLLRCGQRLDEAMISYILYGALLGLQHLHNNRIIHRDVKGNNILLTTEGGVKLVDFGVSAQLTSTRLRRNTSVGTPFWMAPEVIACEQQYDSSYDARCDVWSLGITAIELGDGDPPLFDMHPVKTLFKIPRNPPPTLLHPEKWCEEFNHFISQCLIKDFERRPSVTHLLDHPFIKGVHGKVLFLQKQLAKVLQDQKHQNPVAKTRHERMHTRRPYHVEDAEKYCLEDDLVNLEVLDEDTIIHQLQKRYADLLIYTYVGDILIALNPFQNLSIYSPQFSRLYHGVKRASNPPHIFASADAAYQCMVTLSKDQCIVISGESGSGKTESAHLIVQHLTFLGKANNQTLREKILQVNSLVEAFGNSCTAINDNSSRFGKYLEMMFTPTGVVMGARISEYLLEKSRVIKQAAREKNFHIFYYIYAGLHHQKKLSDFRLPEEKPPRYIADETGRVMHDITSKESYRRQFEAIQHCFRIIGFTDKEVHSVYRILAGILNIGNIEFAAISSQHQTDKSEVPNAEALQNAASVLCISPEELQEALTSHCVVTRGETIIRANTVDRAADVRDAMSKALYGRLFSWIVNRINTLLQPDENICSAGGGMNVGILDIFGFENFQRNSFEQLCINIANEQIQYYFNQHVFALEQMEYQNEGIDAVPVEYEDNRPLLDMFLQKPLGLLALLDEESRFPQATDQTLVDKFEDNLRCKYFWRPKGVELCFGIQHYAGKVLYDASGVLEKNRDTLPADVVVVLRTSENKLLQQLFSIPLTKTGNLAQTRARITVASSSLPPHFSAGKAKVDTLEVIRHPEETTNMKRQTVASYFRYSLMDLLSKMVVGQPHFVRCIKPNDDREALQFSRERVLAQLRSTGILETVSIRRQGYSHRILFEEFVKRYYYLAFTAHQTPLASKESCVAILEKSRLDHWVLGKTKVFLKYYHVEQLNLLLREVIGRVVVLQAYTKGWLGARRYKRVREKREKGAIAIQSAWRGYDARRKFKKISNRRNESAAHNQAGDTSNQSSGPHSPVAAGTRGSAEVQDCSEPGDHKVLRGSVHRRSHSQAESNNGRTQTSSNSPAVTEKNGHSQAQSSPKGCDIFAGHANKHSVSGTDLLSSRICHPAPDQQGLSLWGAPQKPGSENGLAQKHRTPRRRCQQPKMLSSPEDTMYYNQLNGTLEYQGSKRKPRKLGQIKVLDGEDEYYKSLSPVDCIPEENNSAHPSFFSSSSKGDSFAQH
Sequence of human kinome (Homo sapiens, UniProt O94921) (O94921 whole entry): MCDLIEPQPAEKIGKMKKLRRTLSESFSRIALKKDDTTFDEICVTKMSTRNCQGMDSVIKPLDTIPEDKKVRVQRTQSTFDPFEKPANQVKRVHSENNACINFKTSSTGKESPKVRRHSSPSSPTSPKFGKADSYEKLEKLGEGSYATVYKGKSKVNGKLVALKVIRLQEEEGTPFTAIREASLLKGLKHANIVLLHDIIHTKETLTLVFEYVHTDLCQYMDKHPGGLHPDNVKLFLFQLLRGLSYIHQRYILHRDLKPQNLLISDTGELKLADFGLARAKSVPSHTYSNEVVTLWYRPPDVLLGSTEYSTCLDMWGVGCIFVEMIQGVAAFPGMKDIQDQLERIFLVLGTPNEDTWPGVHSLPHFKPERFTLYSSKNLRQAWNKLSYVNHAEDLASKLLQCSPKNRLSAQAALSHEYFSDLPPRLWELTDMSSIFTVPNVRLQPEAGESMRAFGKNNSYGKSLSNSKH
Sequence of human kinome (Homo sapiens, UniProt P48736) (P48736 whole entry): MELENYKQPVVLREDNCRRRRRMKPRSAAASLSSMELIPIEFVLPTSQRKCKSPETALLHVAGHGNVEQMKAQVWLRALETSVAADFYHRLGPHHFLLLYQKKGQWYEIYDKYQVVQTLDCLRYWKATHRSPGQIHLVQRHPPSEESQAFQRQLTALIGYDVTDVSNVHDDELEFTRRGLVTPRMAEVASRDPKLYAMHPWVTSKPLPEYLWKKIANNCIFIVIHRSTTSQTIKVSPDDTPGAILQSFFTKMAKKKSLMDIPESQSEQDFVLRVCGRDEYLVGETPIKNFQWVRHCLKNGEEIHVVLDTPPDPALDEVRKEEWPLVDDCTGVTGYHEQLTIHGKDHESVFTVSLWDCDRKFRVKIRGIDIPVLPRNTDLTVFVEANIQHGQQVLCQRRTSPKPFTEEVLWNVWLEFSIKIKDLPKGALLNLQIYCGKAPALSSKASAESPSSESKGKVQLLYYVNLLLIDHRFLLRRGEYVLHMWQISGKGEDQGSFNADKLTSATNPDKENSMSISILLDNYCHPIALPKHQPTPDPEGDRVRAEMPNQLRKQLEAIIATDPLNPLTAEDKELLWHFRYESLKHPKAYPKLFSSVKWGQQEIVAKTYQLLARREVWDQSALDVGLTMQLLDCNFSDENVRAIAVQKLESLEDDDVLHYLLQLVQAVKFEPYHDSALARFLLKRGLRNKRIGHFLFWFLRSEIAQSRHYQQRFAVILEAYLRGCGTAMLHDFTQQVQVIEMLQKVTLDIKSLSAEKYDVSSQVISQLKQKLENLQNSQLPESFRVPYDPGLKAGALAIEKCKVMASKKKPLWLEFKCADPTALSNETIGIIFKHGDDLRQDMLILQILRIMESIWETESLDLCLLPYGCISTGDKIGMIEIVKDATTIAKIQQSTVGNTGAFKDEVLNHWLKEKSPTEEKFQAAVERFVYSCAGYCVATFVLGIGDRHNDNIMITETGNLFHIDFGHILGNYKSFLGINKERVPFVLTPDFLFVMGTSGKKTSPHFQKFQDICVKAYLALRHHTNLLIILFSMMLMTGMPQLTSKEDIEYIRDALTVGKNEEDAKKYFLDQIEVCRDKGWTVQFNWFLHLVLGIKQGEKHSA
Sequence of human kinome (Homo sapiens, UniProt P16234) (P16234 24-1089): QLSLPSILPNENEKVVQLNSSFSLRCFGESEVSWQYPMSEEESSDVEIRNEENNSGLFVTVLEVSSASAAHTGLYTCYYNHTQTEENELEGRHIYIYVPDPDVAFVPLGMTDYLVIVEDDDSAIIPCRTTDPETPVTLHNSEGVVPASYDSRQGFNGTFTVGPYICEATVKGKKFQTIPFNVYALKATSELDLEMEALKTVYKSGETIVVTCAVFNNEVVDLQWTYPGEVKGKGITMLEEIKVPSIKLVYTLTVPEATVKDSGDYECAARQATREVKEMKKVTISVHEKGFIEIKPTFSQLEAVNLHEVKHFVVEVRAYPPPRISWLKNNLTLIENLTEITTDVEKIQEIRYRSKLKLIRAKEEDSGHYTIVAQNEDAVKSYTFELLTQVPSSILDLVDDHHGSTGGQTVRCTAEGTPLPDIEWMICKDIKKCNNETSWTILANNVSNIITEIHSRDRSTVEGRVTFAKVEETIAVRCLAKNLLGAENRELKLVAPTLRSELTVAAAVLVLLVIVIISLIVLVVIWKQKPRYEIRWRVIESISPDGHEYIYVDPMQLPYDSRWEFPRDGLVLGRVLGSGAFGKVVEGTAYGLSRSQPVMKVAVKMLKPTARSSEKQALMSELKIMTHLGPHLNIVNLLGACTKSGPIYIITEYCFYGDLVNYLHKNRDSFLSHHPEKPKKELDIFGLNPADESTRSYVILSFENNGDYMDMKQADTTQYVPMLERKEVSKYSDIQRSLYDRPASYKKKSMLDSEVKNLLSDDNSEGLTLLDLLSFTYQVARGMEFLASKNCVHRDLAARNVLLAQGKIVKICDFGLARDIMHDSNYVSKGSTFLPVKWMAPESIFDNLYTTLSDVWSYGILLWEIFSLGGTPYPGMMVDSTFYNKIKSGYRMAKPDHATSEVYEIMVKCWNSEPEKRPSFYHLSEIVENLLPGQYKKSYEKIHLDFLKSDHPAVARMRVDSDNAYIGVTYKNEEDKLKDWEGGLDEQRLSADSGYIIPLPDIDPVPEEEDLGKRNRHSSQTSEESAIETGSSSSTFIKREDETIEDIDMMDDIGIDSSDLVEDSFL
Sequence of human kinome (Homo sapiens, UniProt P53778) (P53778 whole entry): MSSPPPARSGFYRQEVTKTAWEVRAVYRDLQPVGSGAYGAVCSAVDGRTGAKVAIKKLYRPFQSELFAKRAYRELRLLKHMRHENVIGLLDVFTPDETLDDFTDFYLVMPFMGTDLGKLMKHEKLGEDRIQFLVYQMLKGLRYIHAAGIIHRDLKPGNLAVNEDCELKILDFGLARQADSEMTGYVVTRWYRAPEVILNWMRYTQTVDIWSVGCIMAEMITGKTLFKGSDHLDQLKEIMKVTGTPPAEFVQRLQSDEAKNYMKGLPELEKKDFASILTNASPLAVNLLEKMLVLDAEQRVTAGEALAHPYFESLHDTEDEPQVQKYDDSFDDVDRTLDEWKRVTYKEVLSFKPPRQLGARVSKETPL
Sequence of human kinome (Homo sapiens, UniProt P27448) (P27448 whole entry): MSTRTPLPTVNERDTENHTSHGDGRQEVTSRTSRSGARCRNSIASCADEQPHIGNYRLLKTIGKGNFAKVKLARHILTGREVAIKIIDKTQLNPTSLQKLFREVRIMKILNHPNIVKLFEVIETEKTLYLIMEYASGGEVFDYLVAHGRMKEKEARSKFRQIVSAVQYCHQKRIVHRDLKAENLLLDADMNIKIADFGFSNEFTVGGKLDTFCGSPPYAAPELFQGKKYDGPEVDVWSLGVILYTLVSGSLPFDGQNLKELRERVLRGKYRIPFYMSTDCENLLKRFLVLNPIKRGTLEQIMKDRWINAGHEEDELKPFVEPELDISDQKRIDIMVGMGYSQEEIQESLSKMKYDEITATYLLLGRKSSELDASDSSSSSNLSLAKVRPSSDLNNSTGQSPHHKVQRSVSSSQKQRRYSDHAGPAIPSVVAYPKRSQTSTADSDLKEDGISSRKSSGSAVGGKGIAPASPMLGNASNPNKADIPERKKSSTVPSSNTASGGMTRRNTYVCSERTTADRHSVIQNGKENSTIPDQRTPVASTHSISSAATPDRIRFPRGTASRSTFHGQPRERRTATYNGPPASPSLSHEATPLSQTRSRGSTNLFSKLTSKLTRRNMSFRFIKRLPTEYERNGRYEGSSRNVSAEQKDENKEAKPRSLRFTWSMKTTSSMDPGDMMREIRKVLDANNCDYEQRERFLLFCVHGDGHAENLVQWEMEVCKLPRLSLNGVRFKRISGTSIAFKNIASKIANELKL

COc1cc(F)ccc1-c1cc(Nc2cc(CS(C)(=N)=O)ccn2)ncc1F (stereo not shown) [VIP152]
remaining binding at 0.1 µM (human kinome [1]): 95% | remaining binding at 0.1 µM (human kinome [2]; PFTK1 (Entrez CDK14), 100 nM): 100% | remaining binding at 1 µM (human kinome [2]; kinase PFTK1 (Entrez CDK14), compound concentration 1000 nM): 84% | remaining binding at 0.1 µM (human kinome [3]): 100% | remaining binding at 0.1 µM (human kinome [4]): 100% | remaining binding at 0.1 µM (human kinome [5]): 100% | remaining binding at 1 µM (human kinome [6]): 9.8% | remaining binding at 0.1 µM (human kinome [7]): 100% | remaining binding at 0.1 µM (human kinome [8]; PDGFRA, 100 nM): 100% | remaining binding at 1 µM (human kinome [8]; kinase PDGFRA (Entrez PDGFRA), compound concentration 1000 nM): 80% | remaining binding at 0.1 µM (human kinome [9]): 100% | remaining binding at 0.1 µM (human kinome [10]): 100% | remaining binding at 0.1 µM (human kinome [11]): 99% | remaining binding at 1 µM (human kinome [12]): 55% | remaining binding at 0.1 µM (human kinome [13]; PIK3CG, 100 nM): 100% | remaining binding at 1 µM (human kinome [13]; kinase PIK3CG (Entrez PIK3CG), compound concentration 1000 nM): 97% | remaining binding at 1 µM (human kinome [14]; kinase p38-gamma (Entrez MAPK12), compound concentration 1000 nM): 100% | remaining binding at 0.1 µM (human kinome [14]; p38-gamma (Entrez MAPK12), 100 nM): 76% | remaining binding at 0.1 µM (human kinome [15]): 100% | remaining binding at 1 µM (human kinome [16]): 88% | remaining binding at 0.1 µM (human kinome [17]): 100% | remaining binding at 0.1 µM (human kinome [18]): 99% | remaining binding at 1 µM (human kinome [19]): 26% | remaining binding at 0.1 µM (human kinome [20]): 100% | remaining binding at 0.1 µM (human kinome [21]): 100% | remaining binding at 1 µM (human kinome [22]): 62% | remaining binding at 1 µM (human kinome [23]): 98% | remaining binding at 0.1 µM (human kinome [24]; MYO3B, 100 nM): 100% | remaining binding at 1 µM (human kinome [24]; kinase MYO3B (Entrez MYO3B), compound concentration 1000 nM): 68% | remaining binding at 0.1 µM (human kinome [25]): 100% | remaining binding at 1 µM (human kinome [26]): 77% | remaining binding at 1 µM (human kinome [27]): 16% | remaining binding at 1 µM (human kinome [28]): 84% | remaining binding at 1 µM (human kinome [29]): 98%
